Results from patent US20160002267A1, “BENZYL-SUBSTITUTED PYRAZOLOPYRIDINES AND USE THEREOF” (BAYER PHARMA AKTIENGESELLSCHAFT, priority 2013, published 2016).

Target: T1, guanylate cyclase (Rattus norvegicus, UniProt P19686+P20595)
T1 construct: expressed in transfected cells; host or cells: recombinant reporter cell line
T1 sequence (P20595 1-619): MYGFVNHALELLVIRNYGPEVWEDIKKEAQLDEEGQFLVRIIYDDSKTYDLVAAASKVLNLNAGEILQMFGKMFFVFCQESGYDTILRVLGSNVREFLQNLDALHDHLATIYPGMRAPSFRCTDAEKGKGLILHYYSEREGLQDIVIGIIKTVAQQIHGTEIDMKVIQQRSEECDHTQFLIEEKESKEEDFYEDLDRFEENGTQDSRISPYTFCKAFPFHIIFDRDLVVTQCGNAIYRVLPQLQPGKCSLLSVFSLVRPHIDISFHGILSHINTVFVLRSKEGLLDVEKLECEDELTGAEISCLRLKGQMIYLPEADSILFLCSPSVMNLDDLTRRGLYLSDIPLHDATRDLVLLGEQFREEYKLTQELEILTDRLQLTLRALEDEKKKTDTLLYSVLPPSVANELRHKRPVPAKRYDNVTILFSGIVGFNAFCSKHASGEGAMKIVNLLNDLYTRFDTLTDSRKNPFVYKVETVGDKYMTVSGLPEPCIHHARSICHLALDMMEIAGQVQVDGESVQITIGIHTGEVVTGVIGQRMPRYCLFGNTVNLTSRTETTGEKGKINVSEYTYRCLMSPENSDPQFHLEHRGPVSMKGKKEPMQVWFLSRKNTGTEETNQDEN
T1 sequence (P19686 1-690): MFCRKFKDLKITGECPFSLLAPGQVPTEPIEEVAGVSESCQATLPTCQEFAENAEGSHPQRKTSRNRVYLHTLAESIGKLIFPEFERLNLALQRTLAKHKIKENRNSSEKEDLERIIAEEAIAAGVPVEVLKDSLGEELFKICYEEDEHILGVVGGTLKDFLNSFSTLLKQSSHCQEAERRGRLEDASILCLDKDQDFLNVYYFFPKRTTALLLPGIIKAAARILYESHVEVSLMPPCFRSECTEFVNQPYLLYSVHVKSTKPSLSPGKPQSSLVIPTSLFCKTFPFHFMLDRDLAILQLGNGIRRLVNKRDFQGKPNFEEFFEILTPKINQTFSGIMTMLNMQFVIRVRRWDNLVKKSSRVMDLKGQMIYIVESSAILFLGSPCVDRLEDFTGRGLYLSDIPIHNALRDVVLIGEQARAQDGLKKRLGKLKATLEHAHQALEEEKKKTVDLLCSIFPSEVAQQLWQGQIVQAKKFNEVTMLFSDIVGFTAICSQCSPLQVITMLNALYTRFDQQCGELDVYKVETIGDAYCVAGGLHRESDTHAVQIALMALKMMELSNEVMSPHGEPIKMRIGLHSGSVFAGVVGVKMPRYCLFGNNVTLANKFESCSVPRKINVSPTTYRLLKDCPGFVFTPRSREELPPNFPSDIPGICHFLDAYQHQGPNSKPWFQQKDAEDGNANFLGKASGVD
Experiment: Effect on a recombinant guanylate cyclase reporter cell line
Format: cell-based
Experimental: The cellular activity of the compounds according to the invention is determined using a recombinant guanylate cyclase reporter cell line, as described in F. Wunder et al., Anal. Biochem. 339, 104-112 (2005).

MEC (minimum effective concentration): 0.3 µM
Structure (SMILES): CC1(C(F)(F)F)C(=O)Nc2nc(-c3nn(Cc4ccccc4F)c4ncc(F)cc34)nc(NCCC(F)(F)F)c21 (single isomer, unassigned) [Example 1-2, 2-[5-Fluoro-1-(2-fluorobenzyl)-1H-pyrazolo[3,4-b]pyridin-3-yl]-5-methyl-5-(trifluoromethyl)-4-[(3,3,3-trifluoropropyl)amino]-5,7-dihydro-6H-pyrrolo[2,3-d]pyrimidin-6-one]
